Key:
Type in all cases: in vivo
NIDDM mice [1] = assay: Fasting blood glucose level in NIDDM (db/db) mice, 44 days treatment (Example 1.2)
Method: (§1) NIDDM mice and db/m+ mice (the sham control) were acclimated at least one week and then grouped for treatment when the average blood glucose value was ≥350 mg/dl after 6-hr fasting. […] Blood glucose and glycated haemoglobin (HbA1c) levels were measured on designated days after 6-hr fasting. Body weight of each test animal was also measured during the study period.
For comparison, a group of 5 db/m+ (C57BLKS/J Lar-m+/+Lepr^db) mice were used as the sham control. Blood glucose levels were measured on day 0 (before treatment), and on days 15, 30, and 45 in the 6-hr fasting animals. Results are illustrated in FIG. 2.

NIDDM mice [2] = assay: Fasting blood glucose level in NIDDM (db/db) mice, R-VPM and/or metformin, 42 days (Example 2.1); conditions: for blood glucose level, % of day 0: 6-hr fasting; for reduction of blood glucose level compared with the vehicle group: metformin 300 mg/Kg; for effect on blood glucose level on its own: low dose, 15 mg/Kg, HCl
Method: as §1
(§2) For comparison, a group of 8 db/m+ (C57BLKS/J Lar-m+/+Lepr^db) mice were used as the sham control. Levels of blood glucose and HbA1c were respectively measured on day 0 (before treatment), and on day 15, 29 and 43 in the 6-hr fasting animals.
In Table 1, blood glucose level in each treatment group was expressed as % of the control, which was the blood glucose level on day 0 and was taken to be 100%.

NIDDM mice [3] = assay: Glycated haemoglobin (HbA1c) level in NIDDM (db/db) mice, R-VPM and/or metformin (Example 2.2); conditions: for C = B − A, HbA1c level minus vehicle / HbA1c level relative to day 0 = 100: metformin 300 mg/Kg once daily
Method: as §1, §2
Another common indicator, glycated haemolglobin (HbA1c), which reflects average blood glucose levels over a duration was also measured in the present study. HbA1c develops when haemolglobin, a protein within red blood cells that carries oxygen throughout the body joins with glucose in the blood and becomes “glycated.” Since red blood cells in a human body survive for about 8-12 weeks before renewal, thus, the level of HbA1c gives an overall picture of average blood sugar levels over such period.

[4] = tested on: STZ-induced diabetic mice; assay: Blood glucose level in STZ-induced diabetic mice (Example 1.1)
Method: Wide-type male C57BL/6 mice were rendered diabetic by multiple intraperitoneal injection of streptozotocin (STZ, 40 mg/Kg/day for 5 days, day 1 to day 5). […] For animals treated with insulin, insulin was administered subcutaneously 90 minutes before blood glucose measurement. Non-fasting blood glucose level was measured on days 6, 15, and 25, whereas fasting blood glucose (i.e., blood glucose level after fasting for 12 hrs fasting) was measured on days 40 and 50.
Results are illustrated in FIG. 1.

[5] = metformin 300 mg/Kg once daily, day 15
[6] = metformin 300 mg/Kg once daily, day 29
[7] = metformin 300 mg/Kg once daily, day 43

Molecule: CN(C)C(=N)N=C(N)N [metformin, reference compound]
- effect on level of fasting blood glucose (FIG. 2) (NIDDM mice [1]; metformin 300 mg/Kg): reduced the level of fasting blood glucose
- C = B − A, blood glucose level minus vehicle (NIDDM mice [2]; [5]): −31.8%
- blood glucose level, % of day 0 (NIDDM mice [2]; [5]): 65.3%
- C = B − A, blood glucose level minus vehicle (NIDDM mice [2]; [6]): −12.8%
- blood glucose level, % of day 0 (NIDDM mice [2]; [6]): 103.6%
- C = B − A, blood glucose level minus vehicle (NIDDM mice [2]; [7]): −12.8%
- blood glucose level, % of day 0 (NIDDM mice [2]; [7]): 108.8%
- reduction of blood glucose level compared with the vehicle group (NIDDM mice [2]; day 15): about 31.8%
- reduction of blood glucose level compared with the vehicle group (NIDDM mice [2]; day 29): ~12.8%
- reduction of blood glucose level compared with the vehicle group (NIDDM mice [2]; day 43): ~12.8%
- effect on blood glucose levels (FIG. 3) (NIDDM mice [2]; metformin, days 15, 29 and 43): could reduce the blood glucose levels
- effect on HbA1c level (FIG. 4) (NIDDM mice [3]; metformin): significantly reduce HbA1c level
- C = B − A, HbA1c level minus vehicle (NIDDM mice [3]; day 15): −5.5
- HbA1c level relative to day 0 = 100 (NIDDM mice [3]; day 15): 114.7
- C = B − A, HbA1c level minus vehicle (NIDDM mice [3]; day 29): −2.5
- HbA1c level relative to day 0 = 100 (NIDDM mice [3]; day 29): 124.9
- C = B − A, HbA1c level minus vehicle (NIDDM mice [3]; day 43): −3
- HbA1c level relative to day 0 = 100 (NIDDM mice [3]; day 43): 133

Molecule: insulin [reference compound]
- effect on level of non-fasting or fasting blood glucose (FIG. 1) ([4]; insulin subcutaneously 90 minutes before measurement): capable of reducing

Molecule: COc1ccc(CCN(C)CCC[C@](C#N)(c2ccc(OC)c(OC)c2)C(C)C)cc1OC.Cl [R-VMP, (R)-(+)-verapamil HCl]
- potency in reducing the level of fasting blood glucose, compared between enantiomers (FIG. 1) ([4]; oral, bid, fasting 12 hrs, days 40 and 50): relatively more potent than (S)-(−)-verapamil HCl
- dose at which the compound alone is effective in reducing blood glucose level ([4]; taken together of the findings in the working examples): ≥ 25 mg/Kg, bid
- effect on fasting blood glucose level compared with control vehicle NIDDM mice (FIG. 2) (NIDDM mice [1]; 50 and 75 mg/Kg, bid): reduced the fasting blood glucose level
- E = D − A, blood glucose level minus vehicle (NIDDM mice [2]; R-VMP 15 mg/Kg, bid, day 15): 2.3%
- blood glucose level, % of day 0 (NIDDM mice [2]; R-VMP 15 mg/Kg, bid, day 15): 99.4%
- E = D − A, blood glucose level minus vehicle (NIDDM mice [2]; R-VMP 15 mg/Kg, bid, day 29): 5.2%
- blood glucose level, % of day 0 (NIDDM mice [2]; R-VMP 15 mg/Kg, bid, day 29): 121.6%
- E = D − A, blood glucose level minus vehicle (NIDDM mice [2]; R-VMP 15 mg/Kg, bid, day 43): −6.6%
- blood glucose level, % of day 0 (NIDDM mice [2]; R-VMP 15 mg/Kg, bid, day 43): 115%
- E = D − A, blood glucose level minus vehicle (NIDDM mice [2]; R-VMP 30 mg/Kg, bid, day 15): −9.4%
- blood glucose level, % of day 0 (NIDDM mice [2]; R-VMP 30 mg/Kg, bid, day 15): 87.7%
- E = D − A, blood glucose level minus vehicle (NIDDM mice [2]; R-VMP 30 mg/Kg, bid, day 29): −12.9%
- blood glucose level, % of day 0 (NIDDM mice [2]; R-VMP 30 mg/Kg, bid, day 29): 103.5%
- E = D − A, blood glucose level minus vehicle (NIDDM mice [2]; R-VMP 30 mg/Kg, bid, day 43): −21.9%
- blood glucose level, % of day 0 (NIDDM mice [2]; R-VMP 30 mg/Kg, bid, day 43): 99.7%
- E = D − A, blood glucose level minus vehicle (NIDDM mice [2]; R-VMP 50 mg/Kg, bid, day 15): −14.8%
- blood glucose level, % of day 0 (NIDDM mice [2]; R-VMP 50 mg/Kg, bid, day 15): 82.3%
- E = D − A, blood glucose level minus vehicle (NIDDM mice [2]; R-VMP 50 mg/Kg, bid, day 29): −22%
- blood glucose level, % of day 0 (NIDDM mice [2]; R-VMP 50 mg/Kg, bid, day 29): 94.4%
- E = D − A, blood glucose level minus vehicle (NIDDM mice [2]; R-VMP 50 mg/Kg, bid, day 43): −22.9%
- blood glucose level, % of day 0 (NIDDM mice [2]; R-VMP 50 mg/Kg, bid, day 43): 98.7%
- effect on blood glucose levels (FIG. 3) (NIDDM mice [2]; higher dose, 30 or 50 mg/Kg, bid): could reduce the blood glucose levels
- effect on blood glucose level on its own (NIDDM mice [2]; bid): possessed no treatment effect
- effect on blood glucose level on its own (NIDDM mice [2]; bid, listed as R-VPM): ineffective
- effect on HbA1c level (FIG. 4) (NIDDM mice [3]; 15 mg/Kg, bid): no effect
- effect on HbA1c level (FIG. 4) (NIDDM mice [3]; 30 mg/Kg, bid): mild reduction
- E = D − A, HbA1c level minus vehicle (NIDDM mice [3]; R-VMP 15 mg/Kg, bid, day 15): −2.5
- E = D − A, HbA1c level minus vehicle (NIDDM mice [3]; R-VMP 15 mg/Kg, bid, day 29): 0.9
- E = D − A, HbA1c level minus vehicle (NIDDM mice [3]; R-VMP 15 mg/Kg, bid, day 43): −3.8
- E = D − A, HbA1c level minus vehicle (NIDDM mice [3]; R-VMP 30 mg/Kg, bid, day 15): −1
- E = D − A, HbA1c level minus vehicle (NIDDM mice [3]; R-VMP 30 mg/Kg, bid, day 29): 0.1
- E = D − A, HbA1c level minus vehicle (NIDDM mice [3]; R-VMP 30 mg/Kg, bid, day 43): −12.8
- E = D − A, HbA1c level minus vehicle (NIDDM mice [3]; R-VMP 50 mg/Kg, bid, day 15): −4.5
- E = D − A, HbA1c level minus vehicle (NIDDM mice [3]; R-VMP 50 mg/Kg, bid, day 29): −3.7
- E = D − A, HbA1c level minus vehicle (NIDDM mice [3]; R-VMP 50 mg/Kg, bid, day 43): −10.5

Molecule: COc1ccc(CCN(C)CCCC(C#N)(c2ccc(OC)c(OC)c2)C(C)C)cc1OC (racemic) [VPM, 2-(3,4-dimethoxyphenyl)-5-[2-(3,4-dimethoxyphenyl)ethylmethylamino]-2-propan-2-ylpentanenitrile, reference compound]
- effect on fasting or non-fasting blood glucose level (FIG. 1) ([4]; 25 or 35 mg/Kg, bid, oral): had no effects
- effect on reduction of fasting blood glucose level (FIG. 2) (NIDDM mice [1]; 30 mg/Kg, bid): neither racemic verapamil HCl (30 mg/Kg, bid) nor (S)-(−)-verapamil HCl, possessed any effect

Molecule: COc1ccc(CCN(C)CCC[C@@](C#N)(c2ccc(OC)c(OC)c2)C(C)C)cc1OC.Cl [S-VPM, (S)-(−)-verapamil HCl]
- effect on reduction of fasting blood glucose level (FIG. 2) (NIDDM mice [1]; dose not printed in the sentence (bid)): neither racemic verapamil HCl (30 mg/Kg, bid) nor (S)-(−)-verapamil HCl, possessed any effect

Reference: patent publication US10278943B2, “Method of treating hyperglycemia” (Center Laboratories, Inc., priority 2016, dated 2019)
